In US20110052556A1, “PHARMACEUTICAL COMPOSITION COMPRISING RACETAM AND CARNITINE AND PROCESS FOR ITS PREPARATION” (Biolab Sanus Farmaceutical Ltda, priority 2008, published 2011):

System: mitochondria isolated from liver of rat
Experiment: Protection against mitochondrial swelling induced by statins
Assay type: biochemical
Procedure: Mitochondria were isolated from adult rat liver (MFR) using the technique of differential centrifugation, according to […] and HOGEBOOM (1951), after a fast of 12 h. The liver, removed after death of the animal by cerebral concussion, was wash in a 250 mM saccharose solution containing buffer 10 mM HEPES pH 7.2 and 0.5 mM EGTA, and chopped with a scissors and homogenized in a Potter-Elvehjem homogeneizer. The material was centrifuged at 2500×g for 10 minutes. The resulting supernatant was centrifuged for 10 minutes at 8000×g. The supernatant was discarded and the sediment resuspended in 250 mM saccharose, 5 mM HEPES pH 7.2, 0.3 mM EGTA, and centrifuged as the previous step. […]
Mitochondrial swelling was calculated based on the decrease in tubidity of a mitochondrial suspension measured at 520 nm in a Hitachi spectrometer model U-3000 for a time period between 0 and 800 seconds.
This procedure of evaluation of mitochondria modification is based on fact that the mitochondria suspensions are turbid and scatter incident light. […] A spectrofotometric measurement of the absorbance reduction at 540 nm (Ca^2+-dependent NAD(P)^+-induced alterations in membrane permeability of the mitochondria. Integration of Mitochondrial Function, Ed. J. Lemasters, Plenum, New York, pp. 535-542) is made in a spectrophotometer connected to a potentiometric recorder. […]

SMILES	smallest dose that presented some protective effect on mitochondrial swelling induced by statins (swelling induced by Simvastatin, Pravastatin and Lovastatin)	protection against mitochondria swelling induced by Simvastatin (MFR 0.5 mg/ml, Piracar 0.25/0.65 μg/ml, CoQ 5 μg/ml, FIG. 5)
C[N+](C)(C)C[C@H](O)CC(=O)[O-] [L-carnitine]	0.5 µg/mL	
COC1=C(OC)C(=O)C(C/C=C(\C)CC/C=C(\C)CC/C=C(\C)CC/C=C(\C)CC/C=C(\C)CC/C=C(\C)CC/C=C(\C)CC/C=C(\C)CC/C=C(\C)CCC=C(C)C)=C(C)C1=O [coenzyme Q10, 2,3,dimethoxyl-5-methyl-6-decaprenil-1,4-benzoquinone]		effect of the addition of coenzyme Q10 in the protection against mitochondria swelling
